The values below come from PubChem BioAssay AID1347 (Sanford-Burnham Center for Chemical Genomics, 2008).

The structures appear in SMILES notation. The source made the active and inactive calls.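 The calls were made as follows: active = survival repeatably raised 25 points above the stressor-only control level of 35%, about 60% survival; inactive = the rest.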

This experiment relates to differentiated CSM14.1, thapsigargin death rescue, ATPlite, 24 h. Put plainly: ER stress death protection in CSM14.1 neurons – cell-based, differentiated CSM14.1, ATP luminescence, SAR follow-up (AID 1347). The settings on record: at 25 µM; hits give high values.
In the case of `O=C1CC(c2ccccc2)CC2=C1C(c1c(F)cccc1Cl)Nc1ccccc1N2` (stereo unspecified), the survival is 10% (inactive).

For `COc1ccc(C2CC(=O)C3=C(C2)Nc2ccccc2NC3c2cccc(C(F)(F)F)c2)cc1OC` (stereo unspecified), the survival is 65%.

As to `COc1ccc(C2CC(=O)C3=C(C2)Nc2ccccc2NC3c2cc(C)ccc2C)cc1` (stereo unspecified), the survival is 69%.

Take `CCOc1cc(C2Nc3ccccc3NC3=C2C(=O)CC(c2ccc(OC)cc2)C3)cc(Cl)c1O` (stereo unspecified): the survival is 20% (inactive).

Consider `COc1ccc(C2CC(=O)C3=C(C2)Nc2ccccc2NC3c2cccc(Br)c2)cc1OC` (stereo unspecified), for which the survival was 63%.

For `CSc1ccc(C2Nc3ccccc3NC3=C2C(=O)CC(c2ccccc2)C3)cc1` (stereo unspecified), the survival is 65%.

For the compound `COc1ccc(C2CC(=O)C3=C(C2)Nc2ccccc2NC3c2ccccc2C(F)(F)F)cc1OC` (stereo unspecified), the survival is 68%.

Turning to `CC1(C)CC(=O)C2=C(C1)Nc1ccccc1NC2c1ccc(-c2ccccc2)cc1` (stereo unspecified), the survival is 47%.

For the compound `COc1ccc(C2CC(=O)C3=C(C2)Nc2ccccc2NC3c2cccc(Oc3ccccc3)c2)cc1OC` (stereo unspecified), the survival was 66%.

Turning to `CCOc1cccc(C2Nc3ccccc3NC3=C2C(=O)CC(c2ccc(OC)cc2)C3)c1` (stereo unspecified), the survival is 64%.

Consider `CCCOc1ccc(C2Nc3ccccc3NC3=C2C(=O)CC(c2ccc(OC)c(OC)c2)C3)cc1` (stereo unspecified), for which the survival was 68%.
